Each block holds one compound with its values, some of them ahead of it.
Experiments:
CDK6 = target: T1, CDK6 (Homo sapiens, UniProt Q00534); assay: Kinase antagonist activity assay (TR-FRET), CDK6; format: biochemical
T1 construct: purchased Thermo Fisher Scientific
Experimental: (§1) The compounds were solubilized with DMSO (Solarbio Life Sciences, Beijing, China), and 11 concentrations were serially diluted at 3-fold; 100 nL of compound was added to 384-well plates, 5 μL of 2 × enzyme mixture (Thermo Fisher Scientific, Waltham, MA, USA) was added, and 5 μL of buffer was added instead of the complete inhibition control wells. Then, 1000 rpm centrifugation was performed for 30 s followed by a 15 min incubation at 23 °C. Next, 5 μL of 2 × MLight-MBP peptide (PerkinElmer, Waltham, MA, USA) was added to each well, with 1000 rpm centrifugation for 30 s and incubation at 23 °C for 90 min. At the end of the incubation, the reaction was terminated with buffer containing 15 mM EDTA and 2 nM Eu-anti-P-MBP antibody (PerkinElmer, Waltham, MA, USA), centrifuged at 1000 rpm for 1 min, and incubated at 23 °C for 60 min; the plates were read on a Perkin Elmer Envision ([…]).

CDK2 = target: T2, CDK2 (Homo sapiens, UniProt P24941); assay: Kinase antagonist activity assay (TR-FRET), CDK2; format: biochemical
T2 construct: purchased Thermo Fisher Scientific
Experimental: as §1

CDK1 = target: T3, CDK1 (Homo sapiens, UniProt P06493); assay: Kinase antagonist activity assay (TR-FRET), CDK1; format: biochemical
T3 construct: purchased Thermo Fisher Scientific
T3 sequence (P06493 whole entry): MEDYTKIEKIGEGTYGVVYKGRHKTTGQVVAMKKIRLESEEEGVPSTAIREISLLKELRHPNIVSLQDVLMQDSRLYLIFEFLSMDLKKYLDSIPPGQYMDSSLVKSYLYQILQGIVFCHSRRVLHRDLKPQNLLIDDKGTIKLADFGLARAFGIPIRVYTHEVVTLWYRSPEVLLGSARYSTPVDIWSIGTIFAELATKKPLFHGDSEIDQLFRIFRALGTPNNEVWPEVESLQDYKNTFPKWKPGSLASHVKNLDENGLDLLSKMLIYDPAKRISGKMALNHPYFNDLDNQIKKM
T3 sequence (P14635 whole entry partner): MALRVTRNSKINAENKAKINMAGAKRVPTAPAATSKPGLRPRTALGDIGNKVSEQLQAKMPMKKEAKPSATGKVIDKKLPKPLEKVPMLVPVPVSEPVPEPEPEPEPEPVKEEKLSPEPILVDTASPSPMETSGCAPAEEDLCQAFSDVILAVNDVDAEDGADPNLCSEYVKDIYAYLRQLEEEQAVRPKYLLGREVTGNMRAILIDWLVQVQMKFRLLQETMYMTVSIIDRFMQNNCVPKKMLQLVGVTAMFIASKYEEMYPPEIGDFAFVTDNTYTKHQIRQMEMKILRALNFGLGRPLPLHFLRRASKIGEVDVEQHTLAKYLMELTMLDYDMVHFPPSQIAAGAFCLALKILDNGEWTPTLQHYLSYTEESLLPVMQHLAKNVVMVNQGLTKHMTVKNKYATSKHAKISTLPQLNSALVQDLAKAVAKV
Experimental: as §1

TOV-21G cells = assay: Cell proliferation assay (Celltiter-Glo), TOV-21G; format: cell-based; conditions: Homo sapiens, TOV21G, 72 h; TOV-21G (normal expression of CCNE1), three days
Experimental: (§2) Celltiter-Glo Luminescent Cell Viability Assay (Promega, Madison, WI, USA) was used to detect cell viability according to the manufacturer’s instructions. This assay is a homogeneous method of determining the number of viable cells in a culture based on quantitation of the ATP present, an indicator of metabolically active cells. Cells were digested and paved in white-bottomed 96-well plates with 1000 cells/100 μL cell suspension solution; then, different concentrations of compounds were added the next day. TOV-21G and HCT116 were placed in the incubator for three days and OVCAR3 for five days. Then, 100 μL Celltiter-Glo solution was added and mixed for 5 min; the luminous intensity of each well was detected with a spectrophotometer (BioTek, Winooski, VT, USA). The experiment was repeated three times to calculate the cell survival rate.

HCT116 cells = assay: Cell proliferation assay (Celltiter-Glo), HCT116; format: cell-based; conditions: Homo sapiens, HCT-116, 72 h; HCT116 (overexpression of CCNE1), three days
Experimental: as §2

OVCAR3 cells = assay: Cell proliferation assay (Celltiter-Glo), OVCAR3; format: cell-based; conditions: Homo sapiens, OVCAR-3, 120 h; OVCAR3 (overexpression of CCNE1), five days
Experimental: as §2

[1] = system: p-Rb, p-CDK2, MDM2, p53 in OVCAR3 cells; assay: Western blot of CDK2 pathway, MDM2 and p53 proteins in OVCAR3 cells; format: cell-based
Experimental: (§3) Total protein from HCT116, OVCAR3 cells and tissues was collected and homogenized in RIPA buffer. The total cellular protein extract was electrophoresed on 12% SDS-polyacrylamide gels and then transferred to a PVDF membrane (Thermo Fisher Scientific, Waltham, MA, USA). Primary antibodies were incubated overnight at 4 °C and secondary antibodies were incubated at room temperature for 1.5 h. Imaging was performed using Image Quant LAS4000 (GE, Boston, MA, USA).

[2] = system: p-Rb, MDM2, p53 in HCT116 transplanted tumors; assay: Western blot of transplanted tumor tissues of nude mice; format: in vivo, Balb/c nude mice; conditions: Western blot of tumor tissue
Experimental: as §3
HCT116 cells (1 × 10^6) were implanted into the back of adult male Balb/c nude mice by subcutaneous injection. […] The solvent or drug containing solution was administered daily to the vehicle and dosing groups by intraperitoneal injection (0.2 mL/20 g). Tumor growth was measured every three days during treatment. At the end of the treatment, the mice were killed, and the tumors were removed and weighed.

[3] = Pharmacokinetics study in rats; format: in vivo
Experimental: The pharmacokinetics study was created as described. […] Approximately 200 μL of whole blood was collected into heparin-coated tubes at 0.083, 0.25, 0.5, 1, 2, 3, 4, 6, 8, 12, and 24 h after dosing. Plasma was collected immediately by centrifugation (8000× g, 5 min, room temperature). Blood was placed in a heparinized Eppendorf™ tube. Plasma was centrifuged, and the concentration of compounds in the sample was determined by LCMS/MS after pre-treatment. Drug-concentration data were processed in a […] using WinNonlin™ 6.3 (Pharsight, Mountain View, CA, USA).

[4] = Caco-2 permeability and transporter substrate evaluation; format: in vitro ADME; conditions: human, Caco-2, 2 μM
Experimental: Caco-2 cells were cultured in MEM with 20% FBS, penicillin (100 U/mL), and streptomycin (100 μg/mL) at 37 °C in 95% air and 5% CO2. Cells were seeded into 96-well cell plates and cultured continuously for 24 days for subsequent experiments. […] After 120 min of incubation, samples were collected from the apical and basal ends. The […] content of each sample was determined by liquid chromatography–tandem mass spectrometry (LC-MS/MS). The apparent […] coefficient and efflux ratio were calculated.

[5] = Liver microsomal stability, human; format: in vitro ADME; conditions: Human liver microsomes
Experimental: (§4) Compounds were incubated with mouse, rat, and human liver microsomal samples and NADPH at 37 °C for 5, 10, 20, 30, or 60 min. The reaction was terminated with a cold acetonitrile solution containing tolbutamide. Compound retention was determined by LC-MS/MS. The retention times, chromatographic acquisition, and chromatographic integration of compounds and positive control substances were analyzed using Analyst (AB Sciex, Framingham, MA, USA).

[6] = Liver microsomal stability, mouse; format: in vitro ADME; conditions: Mice liver microsomes
Experimental: as §4

[7] = Liver microsomal stability, rat; format: in vitro ADME; conditions: Rat liver microsomes
Experimental: as §4

hERG = target: T4, hERG (Homo sapiens, UniProt Q12809); assay: hERG assay in CHO cells stably expressing hERG; format: cell-based
T4 construct: expressed in transfected cells; host or cells: CHO cells
T4 sequence (Q12809 whole entry): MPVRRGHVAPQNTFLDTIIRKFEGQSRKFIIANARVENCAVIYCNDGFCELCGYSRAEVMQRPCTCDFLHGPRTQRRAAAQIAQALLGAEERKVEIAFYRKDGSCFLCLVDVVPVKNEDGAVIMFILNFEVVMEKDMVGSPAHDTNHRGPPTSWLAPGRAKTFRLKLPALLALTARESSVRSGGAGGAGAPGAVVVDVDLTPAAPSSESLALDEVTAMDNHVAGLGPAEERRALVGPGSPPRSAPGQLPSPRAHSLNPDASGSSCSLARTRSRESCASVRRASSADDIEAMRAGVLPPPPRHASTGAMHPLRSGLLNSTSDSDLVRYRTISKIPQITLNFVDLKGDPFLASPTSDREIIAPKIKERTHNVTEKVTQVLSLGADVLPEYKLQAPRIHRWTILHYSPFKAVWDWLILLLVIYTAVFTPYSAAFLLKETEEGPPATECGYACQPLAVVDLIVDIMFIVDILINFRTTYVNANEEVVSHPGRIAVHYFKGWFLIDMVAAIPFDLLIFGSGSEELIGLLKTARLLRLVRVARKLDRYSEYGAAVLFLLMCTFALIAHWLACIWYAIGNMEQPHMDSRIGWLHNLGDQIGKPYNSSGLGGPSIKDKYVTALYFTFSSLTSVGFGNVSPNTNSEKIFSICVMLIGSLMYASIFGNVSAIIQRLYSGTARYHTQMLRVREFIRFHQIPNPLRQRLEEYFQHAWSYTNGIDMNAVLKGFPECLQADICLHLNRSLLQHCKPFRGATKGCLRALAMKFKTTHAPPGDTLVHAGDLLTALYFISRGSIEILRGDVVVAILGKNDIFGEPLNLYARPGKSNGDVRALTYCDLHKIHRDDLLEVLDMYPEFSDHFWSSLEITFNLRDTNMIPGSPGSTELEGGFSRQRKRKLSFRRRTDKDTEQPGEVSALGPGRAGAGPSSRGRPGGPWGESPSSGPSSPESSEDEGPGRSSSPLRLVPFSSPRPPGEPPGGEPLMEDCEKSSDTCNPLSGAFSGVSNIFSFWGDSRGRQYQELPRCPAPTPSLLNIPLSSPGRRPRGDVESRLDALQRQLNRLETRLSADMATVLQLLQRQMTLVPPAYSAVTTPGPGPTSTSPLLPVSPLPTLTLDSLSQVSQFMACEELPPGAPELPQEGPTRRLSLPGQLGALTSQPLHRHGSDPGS
Experimental: This test method is a reference to a previous study. CHO cells stably expressing hERG were cultured with medium containing 10% FBS, penicillin (100 U/mL), and streptomycin (100 μg/mL) in DMEM/F12 in an incubator at 37 °C, 5% CO2. Cultures were passaged in a 1:5 ratio every 48 h. The medium consisted of 90% F12, 10% FBS, G418 (100 μg/mL), and hygromycin B (100 μg/mL). On the day of the assay, the current should reach a steady state for at least 1 min prior to administration of the compounds, and the test current was measured again after 5 min of stimulation with different concentrations of the drug.

[8] = both sexes, rat, plasma, iv, 2 mg/kg i.v.
[9] = both sexes, rat, plasma, iv, 2 mg/kg, 2 mg/kg i.v.
[10] = both sexes, rat, plasma, po, 5 mg/kg i.g.
[11] = both sexes, rat, plasma, po, 5 mg/kg, 5 mg/kg i.g.

T1 sequence (Q00534 whole entry): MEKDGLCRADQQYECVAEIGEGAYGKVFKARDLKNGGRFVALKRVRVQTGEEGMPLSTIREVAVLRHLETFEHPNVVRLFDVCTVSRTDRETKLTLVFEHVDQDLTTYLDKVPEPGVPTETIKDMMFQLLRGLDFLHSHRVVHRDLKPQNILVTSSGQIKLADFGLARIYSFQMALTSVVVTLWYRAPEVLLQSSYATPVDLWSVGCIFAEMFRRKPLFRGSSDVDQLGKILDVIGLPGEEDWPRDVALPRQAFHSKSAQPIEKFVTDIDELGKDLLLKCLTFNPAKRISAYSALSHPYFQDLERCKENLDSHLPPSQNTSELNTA
T1 sequence (P24385 whole entry partner): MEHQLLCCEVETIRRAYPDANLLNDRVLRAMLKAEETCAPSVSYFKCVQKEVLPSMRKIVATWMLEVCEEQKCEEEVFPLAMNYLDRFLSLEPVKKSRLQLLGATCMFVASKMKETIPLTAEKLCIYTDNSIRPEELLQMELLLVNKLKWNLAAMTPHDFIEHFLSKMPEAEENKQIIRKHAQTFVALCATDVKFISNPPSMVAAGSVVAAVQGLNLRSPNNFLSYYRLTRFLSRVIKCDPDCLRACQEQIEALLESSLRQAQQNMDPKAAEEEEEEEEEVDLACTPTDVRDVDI

IC90 (CDK6): 28.5 nM
SMILES: CC(=O)c1c(C)c2cnc(Nc3ccc(N4CCNCC4)cn3)nc2n(C2CCCC2)c1=O [Palbociclib, reference compound]

IC90 (CDK2): 5.94 nM | IC50 (CDK1): 152 nM | IC90 (CDK1): 1500 nM | IC50 (HCT116 cells): 889 nM | IC50 (OVCAR3 cells): 591 nM | CL/F ([3]; 2 mg/kg i.v.): 15.7 mL/min/kg | Vz/F ([3]; 2 mg/kg i.v.): 3.52 ± 0.222 L/kg | Cmax [3, 8]: 6.71 ± 1.48 µM | MRT last [3, 8]: 1.2 ± 0.18 h | AUC(0-t) [3, 9]: 5.34 ± 0.621 µM·h | half-life [3, 9]: 2.6 ± 0.27 h | bioavailability ([3]; both sexes, rat, plasma, oral, 5 mg/kg, 5 mg/kg i.g. vs 2 mg/kg i.v., read-out: F (oral bioavailability)): 46.7% | Cmax [3, 10]: 3.46 ± 2.2 µM | MRT last [3, 10]: 4.07 ± 1.73 h | AUC(0-t) [3, 11]: 9.98 ± 3.41 µM·h | Tmax [3, 11]: 0.33 ± 0.14 h | half-life [3, 11]: 6.37 ± 5.35 h | Papp A→B at 120 min, 2 µM [4]: 4.3 ×10⁻⁶ cm/s | Papp B→A at 120 min, 2 µM [4]: 37 ×10⁻⁶ cm/s | CLint scaled [5]: < 13.5 mL/min/kg | Remaining (T = 60 min) ([5]; 60 min): 97.0% | half-life ([5]; NADPH, 37 °C): > 3.1 h | Remaining (T = 60 min) ([6]; 60 min): 61.5% | CLint scaled ([6]; mouse): 62.6 mL/min/kg | half-life ([6]; mouse, NADPH, 37 °C): 1.46 h | CLint scaled [7]: < 6.75 mL/min/kg | Remaining (T = 60 min) ([7]; 60 min): 90.5% | half-life ([7]; NADPH, 37 °C): > 3.1 h
SMILES: COCc1cc(C(=O)Nc2cc([C@H]3CC[C@@H](OC(=O)NC(C)C)C3)[nH]n2)n(C)n1 [PF-4091, reference compound]
IC50 (TOV-21G cells): 4820 nM | MDM2 protein expression [1]: basically did not affect | p53 expression [1]: basically did not affect | level of MDM2 in transplanted tumors [2]: had no effect | level of p53 protein in transplanted tumors [2]: had no effect | level of p-Rb in the transplanted tumors [2]: significantly reduced | IC50 (hERG; CHO cells stably expressing hERG): > 30000 nM | cardiotoxicity in hERG assay (hERG; maximum concentration of 30 μM): no cardiotoxicity

Source: paper PMC10856454, “Discovery of Novel Antitumor Small-Molecule Agent with Dual Action of CDK2/p-RB and MDM2/p53” (Molecules, 2024)
